Measured values taken from patent US20060154243A1 (priority 2003, published 2006).

Each sequence was assayed on serum 2 (individual 2).
Assay type: binding, human

Point of comparison: QLLAAVGEILLLEWL, “Binding of serum 2 to linear peptides of Orf14 of SARS-CoV TOR2” value 0.4. Against it:
- AAVKPLLAPHHVVAV — higher, 1.0
- AVKPLLAPHHVVAVI — higher, 0.5
- EAAVKPLLAPHHVVA — higher, 0.7
- PLLAPHHVVAVIQEI — the same, 0.4
- QEIQLLAAVGEILLL — higher, 0.5
- QREAEAAVKPLLAPH — the same, 0.4
- REAEAAVKPLLAPHH — the same, 0.4
- TQREAEAAVKPLLAP — the same, 0.4
- VAVIQEIQLLAAVGE — lower, 0.3
- VGEILLLEWLAEVVK — the same, 0.4
- VIQEIQLLAAVGEIL — the same, 0.4
- VVAVIQEIQLLAAVG — higher, 0.7

What follows are sequences tested on serum 1a (individual 1, early serum).
Assay type: binding, human

Point of comparison: AAVKPLLAPHHVVAV, “Binding of serum 1a to linear peptides of Orf14 of SARS-CoV TOR2” value 0.8. Against it:
- AVKPLLAPHHVVAVI — lower, 0.6
- EAAVKPLLAPHHVVA — lower, 0.6
- PLLAPHHVVAVIQEI — lower, 0.5
- QEIQLLAAVGEILLL — lower, 0.5
- QLLAAVGEILLLEWL — lower, 0.5
- QREAEAAVKPLLAPH — lower, 0.4
- REAEAAVKPLLAPHH — lower, 0.5
- TQREAEAAVKPLLAP — lower, 0.4
- VAVIQEIQLLAAVGE — lower, 0.5
- VGEILLLEWLAEVVK — lower, 0.5
- VIQEIQLLAAVGEIL — lower, 0.5
- VVAVIQEIQLLAAVG — the same, 0.8

These sequences were tested on serum SARS-green.
Assay type: binding, human

Point of comparison: QLLAAVGEILLLEWL, “Binding of serum SARS-green to linear peptides of Orf14 of SARS-CoV TOR2” value 0.1. Against it:
- AAVKPLLAPHHVVAV — higher, 0.6
- AVKPLLAPHHVVAVI — higher, 0.3
- EAAVKPLLAPHHVVA — higher, 0.6
- PLLAPHHVVAVIQEI — higher, 0.2
- QEIQLLAAVGEILLL — higher, 0.2
- QREAEAAVKPLLAPH — higher, 0.3
- REAEAAVKPLLAPHH — the same, 0.1
- TQREAEAAVKPLLAP — higher, 0.3
- VAVIQEIQLLAAVGE — higher, 0.3
- VGEILLLEWLAEVVK — higher, 0.2
- VIQEIQLLAAVGEIL — higher, 0.5
- VVAVIQEIQLLAAVG — higher, 0.5

What follows are sequences tested on control serum LUMC (pooled serum of ten healthy hospital workers).
Assay type: binding, human

Point of comparison: VIQEIQLLAAVGEIL, “Control serum LUMC linear peptides” value 0.6. Against it:
- AAVKPLLAPHHVVAV — higher, 1.0
- AVKPLLAPHHVVAVI — the same, 0.6
- EAAVKPLLAPHHVVA — higher, 0.8
- PLLAPHHVVAVIQEI — lower, 0.5
- QEIQLLAAVGEILLL — higher, 0.7
- QLLAAVGEILLLEWL — the same, 0.6
- QREAEAAVKPLLAPH — lower, 0.4
- REAEAAVKPLLAPHH — lower, 0.3
- TQREAEAAVKPLLAP — lower, 0.4
- VAVIQEIQLLAAVGE — lower, 0.3
- VGEILLLEWLAEVVK — the same, 0.6
- VVAVIQEIQLLAAVG — higher, 1.1

Point of comparison: AVKPLLAPHHVVAVI, “Control serum LUMC looped peptides” value 0.7. Against it:
- AAVKPLLAPHHVVAV — the same, 0.7
- EAAVKPLLAPHHVVA — the same, 0.7
- PLLAPHHVVAVIQEI — lower, 0.6
- QEIQLLAAVGEILLL — lower, 0.5
- QLLAAVGEILLLEWL — lower, 0.5
- QREAEAAVKPLLAPH — the same, 0.7
- REAEAAVKPLLAPHH — lower, 0.6
- TQREAEAAVKPLLAP — the same, 0.7
- VAVIQEIQLLAAVGE — lower, 0.6
- VGEILLLEWLAEVVK — higher, 0.8
- VIQEIQLLAAVGEIL — higher, 0.9
- VVAVIQEIQLLAAVG — lower, 0.4

What follows are sequences tested on control serum Blood-bank (commercial negative donor pooled serum).
Assay type: binding, human

Point of comparison: VAVIQEIQLLAAVGE, “Control Serum Blood-Bank Looped peptides” value 0.6. Against it:
- AAVKPLLAPHHVVAV — the same, 0.6
- AVKPLLAPHHVVAVI — higher, 0.7
- EAAVKPLLAPHHVVA — higher, 0.8
- PLLAPHHVVAVIQEI — the same, 0.6
- QEIQLLAAVGEILLL — the same, 0.6
- QLLAAVGEILLLEWL — the same, 0.6
- QREAEAAVKPLLAPH — higher, 0.7
- REAEAAVKPLLAPHH — higher, 0.7
- TQREAEAAVKPLLAP — higher, 0.8
- VGEILLLEWLAEVVK — higher, 0.7
- VIQEIQLLAAVGEIL — lower, 0.5
- VVAVIQEIQLLAAVG — lower, 0.5

Point of comparison: REAEAAVKPLLAPHH, “Control serum Blood-bank linear peptides” value 0.2. Against it:
- AAVKPLLAPHHVVAV — higher, 1.0
- AVKPLLAPHHVVAVI — higher, 0.7
- EAAVKPLLAPHHVVA — higher, 0.6
- PLLAPHHVVAVIQEI — higher, 0.4
- QEIQLLAAVGEILLL — higher, 0.4
- QLLAAVGEILLLEWL — higher, 0.4
- QREAEAAVKPLLAPH — higher, 0.4
- TQREAEAAVKPLLAP — higher, 0.4
- VAVIQEIQLLAAVGE — higher, 0.3
- VGEILLLEWLAEVVK — higher, 0.5
- VIQEIQLLAAVGEIL — higher, 0.4
- VVAVIQEIQLLAAVG — higher, 1.1

These sequences were tested on serum 37 (individual 37).
Assay type: binding, human

Point of comparison: VAVIQEIQLLAAVGE, “Binding of serum 37 to linear peptides of Orf14 of SARS-CoV TOR2” value 0.5. Against it:
- AAVKPLLAPHHVVAV — higher, 0.9
- AVKPLLAPHHVVAVI — higher, 0.7
- EAAVKPLLAPHHVVA — higher, 0.7
- PLLAPHHVVAVIQEI — higher, 0.6
- QEIQLLAAVGEILLL — higher, 0.6
- QLLAAVGEILLLEWL — higher, 0.6
- QREAEAAVKPLLAPH — lower, 0.4
- REAEAAVKPLLAPHH — the same, 0.5
- TQREAEAAVKPLLAP — lower, 0.4
- VGEILLLEWLAEVVK — higher, 0.6
- VIQEIQLLAAVGEIL — higher, 0.6
- VVAVIQEIQLLAAVG — higher, 0.6

Each sequence was assayed on serum SARS-yellow.
Assay type: binding, human

Point of comparison: QEIQLLAAVGEILLL, “Binding of serum SARS-yellow to linear peptides of Orf14 of SARS-CoV TOR2” value 0.5. Against it:
- AAVKPLLAPHHVVAV — higher, 0.8
- AVKPLLAPHHVVAVI — higher, 0.6
- EAAVKPLLAPHHVVA — higher, 0.6
- PLLAPHHVVAVIQEI — lower, 0.4
- QLLAAVGEILLLEWL — lower, 0.4
- QREAEAAVKPLLAPH — lower, 0.2
- REAEAAVKPLLAPHH — lower, 0.2
- TQREAEAAVKPLLAP — lower, 0.2
- VAVIQEIQLLAAVGE — lower, 0.2
- VGEILLLEWLAEVVK — lower, 0.4
- VIQEIQLLAAVGEIL — lower, 0.3
- VVAVIQEIQLLAAVG — lower, 0.4

These sequences were tested on serum 1b (individual 1, late serum).
Assay type: binding, human

Point of comparison: QEIQLLAAVGEILLL, “Binding of serum 1b to linear peptides of Orf14 of SARS-CoV TOR2” value 0.4. Against it:
- AAVKPLLAPHHVVAV — higher, 0.6
- AVKPLLAPHHVVAVI — the same, 0.4
- EAAVKPLLAPHHVVA — higher, 0.5
- PLLAPHHVVAVIQEI — the same, 0.4
- QLLAAVGEILLLEWL — the same, 0.4
- QREAEAAVKPLLAPH — lower, 0.3
- REAEAAVKPLLAPHH — lower, 0.3
- TQREAEAAVKPLLAP — lower, 0.2
- VAVIQEIQLLAAVGE — the same, 0.4
- VGEILLLEWLAEVVK — the same, 0.4
- VIQEIQLLAAVGEIL — the same, 0.4
- VVAVIQEIQLLAAVG — higher, 0.7

The sequences below were run on serum 62 (individual 62).
Assay type: binding, human

Point of comparison: VVAVIQEIQLLAAVG, “Binding of serum 62 to linear peptides of Orf14 of SARS-CoV TOR2” value 0.8. Against it:
- AAVKPLLAPHHVVAV — higher, 0.9
- AVKPLLAPHHVVAVI — lower, 0.5
- EAAVKPLLAPHHVVA — lower, 0.6
- PLLAPHHVVAVIQEI — lower, 0.4
- QEIQLLAAVGEILLL — lower, 0.4
- QLLAAVGEILLLEWL — lower, 0.4
- QREAEAAVKPLLAPH — lower, 0.3
- REAEAAVKPLLAPHH — lower, 0.3
- TQREAEAAVKPLLAP — lower, 0.3
- VAVIQEIQLLAAVGE — lower, 0.3
- VGEILLLEWLAEVVK — lower, 0.4
- VIQEIQLLAAVGEIL — lower, 0.4

Each sequence was assayed on rabbit serum obtained by immunizing with SARS-CoV strain Frankfurt 1.
Assay type: binding

For AAVKPLLAPHHVVAV, the “Recognition by the rabbit serum” value was “recognized by the rabbit serum”.
For AVKPLLAPHHVVAVI, the “Recognition by the rabbit serum” value was “recognized by the rabbit serum”.
For EAAVKPLLAPHHVVA, the “Recognition by the rabbit serum” value was “recognized by the rabbit serum”.

Each sequence was assayed on serum London.
Assay type: binding, human

Point of comparison: AAVKPLLAPHHVVAV, “Binding of serum London to linear peptides of Orf14 of SARS-CoV TOR2” value 0.8. Against it:
- AVKPLLAPHHVVAVI — lower, 0.5
- EAAVKPLLAPHHVVA — the same, 0.8
- PLLAPHHVVAVIQEI — lower, 0.5
- QEIQLLAAVGEILLL — lower, 0.3
- QLLAAVGEILLLEWL — lower, 0.4
- QREAEAAVKPLLAPH — lower, 0.4
- REAEAAVKPLLAPHH — lower, 0.4
- TQREAEAAVKPLLAP — lower, 0.4
- VAVIQEIQLLAAVGE — lower, 0.3
- VGEILLLEWLAEVVK — lower, 0.5
- VIQEIQLLAAVGEIL — lower, 0.4
- VVAVIQEIQLLAAVG — higher, 1.0

The sequences below were run on serum 6 (individual 6).
Assay type: binding, human

Point of comparison: QREAEAAVKPLLAPH, “Binding of serum 6 to linear peptides of Orf14 of SARS-CoV TOR2” value 0.5. Against it:
- AAVKPLLAPHHVVAV — higher, 0.7
- AVKPLLAPHHVVAVI — the same, 0.5
- EAAVKPLLAPHHVVA — the same, 0.5
- PLLAPHHVVAVIQEI — lower, 0.4
- QEIQLLAAVGEILLL — lower, 0.4
- QLLAAVGEILLLEWL — lower, 0.3
- REAEAAVKPLLAPHH — lower, 0.3
- TQREAEAAVKPLLAP — lower, 0.4
- VAVIQEIQLLAAVGE — lower, 0.4
- VGEILLLEWLAEVVK — the same, 0.5
- VIQEIQLLAAVGEIL — lower, 0.3
- VVAVIQEIQLLAAVG — higher, 1.3
